Legend:
[1] = tested on: NCI-H1299; assay: Antitumor activity against human NCI-H1299 cells overexpressing Skp2 assessed as cell growth inhibition incubated for 72 hrs by MTT assay; format: functional, cell-based; settings: NCI-H1299, 72 h
[2] = tested on: PC-9; assay: Antitumor activity against human PC-9 cells overexpressing Skp2 assessed as cell growth inhibition incubated for 72 hrs by MTT assay; format: functional, cell-based; settings: PC-9, 72 h
[3] = tested on: MGC-803; assay: Antitumor activity against human MGC-803 cells overexpressing Skp2 assessed as cell growth inhibition incubated for 72 hrs by MTT assay; format: functional, cell-based; settings: MGC-803, 72 h
[4] = tested on: A2780; assay: Antitumor activity against human A2780 cells with low Skp2 expression assessed as cell growth inhibition incubated for 72 hrs by MTT assay; format: functional, cell-based; settings: A2780, 72 h
[5] = tested on: MGC-803; assay: Upregulation of p27 level in human MGC-803 cells upto 10 uM by Western blot analysis; format: functional, cell-based; settings: time 48.0 hrs, TDE = time-dependent effect
[6] = tested on: PC-3; assay: Inhibition of cell migration in human PC-3 cells by transwell invasion assay; format: functional, cell-based; settings: dose <= 2.0 µM
[7] = tested on: PC-3; assay: Induction of cell cycle arrest in human PC-3 cells assessed as accumulation of cells at G2 phase at 2.5 uM incubated for 48 hrs by flow cytometry (reference value: 22.59 %); format: functional
[8] = tested on: PC-3; assay: Induction of cell cycle arrest in human PC-3 cells assessed as accumulation of cells at G2 phase at 5 uM incubated for 48 hrs by flow cytometry (reference value: 22.59 %); format: functional
[9] = tested on: MGC-803; assay: Induction of cell cycle arrest in human MGC-803 cells assessed as accumulation of cells at S phase at 10 uM incubated for 48 hrs by flow cytometry (reference value: 22.72 %); format: functional
[10] = tested on: PC-3; assay: Induction of cell cycle arrest in human PC-3 cells assessed as accumulation of cells at S phase at 10 uM incubated for 6 hrs by flow cytometry (reference value: 19.7 %); format: functional
[11] = tested on: PC-3; assay: Induction of cell cycle arrest in human PC-3 cells assessed as accumulation of cells at G1 phase at 10 uM incubated for 24 hrs by flow cytometry (reference value: 56.81 %); format: functional
[12] = tested on: PC-3; assay: Induction of cell cycle arrest in human PC-3 cells assessed as accumulation of cells at S phase at 10 uM incubated for 24 hrs by flow cytometry (reference value: 19.7 %); format: functional
[13] = tested on: PC-3; assay: Induction of cell cycle arrest in human PC-3 cells assessed as accumulation of cells at G1 phase at 10 uM incubated for 48 hrs by flow cytometry (reference value: 56.81 %); format: functional
[14] = tested on: MGC-803; assay: Induction of cell cycle arrest in human MGC-803 cells assessed as accumulation of cells at G2 phase at 10 uM incubated for 6 hrs by flow cytometry (reference value: 20.64 %); format: functional
[15] = tested on: MGC-803; assay: Induction of cell cycle arrest in human MGC-803 cells assessed as accumulation of cells at G2 phase at 10 uM incubated for 12 hrs by flow cytometry (reference value: 20.64 %); format: functional
[16] = tested on: MGC-803; assay: Induction of cell cycle arrest in human MGC-803 cells assessed as accumulation of cells at G1 phase at 10 uM incubated for 24 hrs by flow cytometry (reference value: 57.09 %); format: functional
[17] = tested on: MGC-803; assay: Induction of cell cycle arrest in human MGC-803 cells assessed as accumulation of cells at G1 phase at 10 uM incubated for 48 hrs by flow cytometry (reference value: 57.09 %); format: functional
[18] = tested on: PC-3; assay: Induction of apoptosis in human PC-3 cells assessed as early apoptotic cells at 2.5 uM incubated for 48 hrs by annexin V-FITC/PI staining based flow cytometry (reference value: 0.85 %); format: functional
[19] = tested on: PC-3; assay: Induction of apoptosis in human PC-3 cells assessed as necrotic cells at 2.5 uM incubated for 48 hrs by annexin V-FITC/PI staining based flow cytometry (reference value: 0.14 %); format: functional
[20] = tested on: PC-3; assay: Induction of apoptosis in human PC-3 cells assessed as late apoptotic cells at 5 uM incubated for 48 hrs by annexin V-FITC/PI staining based flow cytometry (reference value: 0.45 %); format: functional
[21] = tested on: PC-3; assay: Induction of apoptosis in human PC-3 cells assessed as late apoptotic cells at 10 uM incubated for 48 hrs by annexin V-FITC/PI staining based flow cytometry (reference value: 0.45 %); format: functional
[22] = tested on: PC-3; assay: Induction of apoptosis in human PC-3 cells assessed as necrotic cells at 10 uM incubated for 48 hrs by annexin V-FITC/PI staining based flow cytometry (reference value: 0.14 %); format: functional
[23] = tested on: MGC-803; assay: Induction of apoptosis in human MGC-803 cells assessed as early apoptotic cells at 2.5 uM incubated for 48 hrs by annexin V-FITC/PI staining based flow cytometry (reference value: 0.21 %); format: functional
[24] = tested on: MGC-803; assay: Induction of apoptosis in human MGC-803 cells assessed as late apoptotic cells at 2.5 uM incubated for 48 hrs by annexin V-FITC/PI staining based flow cytometry (reference value: 0.95 %); format: functional
[25] = tested on: PC-3; assay: Antitumor activity against human PC-3 cells xenografted in NOD-SCID mouse model assessed as tumor suppression at 50 mg/kg, IG administered once every 2 days for 21 days relative to control; format: functional; settings: time 21 day
[26] = Toxicity in NOD-SCID mouse model xenografted with human PC-3 cells assessed as body weight change at 10 to 50 mg/kg, IG administered once every 2 days for 21 days; format: organism-based; settings: in vivo, po, 504 h, dose 10-50 mg/kg, time 21 day
[27] = Toxicity in NOD-SCID mouse model xenografted with human PC-3 cells assessed as drug tolerance at 10 to 50 mg/kg, IG administered once every 2 days for 21 days; format: organism-based; settings: in vivo, po, 504 h, dose 10-50 mg/kg, time 21 day
[28] = Toxicity in NOD-SCID mouse model xenografted with human PC-3 cells assessed as change in liver histology at 10 to 50 mg/kg, IG administered once every 2 days for 21 days by H and E staining based analysis; format: organism-based; settings: in vivo, po, 504 h, dose 10-50 mg/kg, time 21 day
[29] = Toxicity in NOD-SCID mouse model xenografted with human PC-3 cells assessed as change in lung histology at 10 to 50 mg/kg, IG administered once every 2 days for 21 days by H and E staining based analysis; format: organism-based; settings: in vivo, po, 504 h, dose 10-50 mg/kg, time 21 day
[30] = Toxicity in NOD-SCID mouse model xenografted with human MGC-803 cells assessed as change in lung histology at 10 to 50 mg/kg, IG administered once every 2 days for 21 days by H and E staining based analysis; format: organism-based; settings: in vivo, po, 504 h, dose 10-50 mg/kg, time 21 day
[31] = Cmax in plasma of NOD-SCID mouse model xenografted with human PC-3 cells at 25 mg/kg, IG measured upto 48 hrs by LC-MS/MS analysis; format: ADME, organism-based; parameters: time < 48 hrs, dose 25 mg/kg, route ig; settings: po
[32] = Apparent volume of distribution in plasma of NOD-SCID mouse model xenografted with human PC-3 cells at 25 mg/kg, IG measured upto 48 hrs by LC-MS/MS analysis; format: ADME, organism-based; settings: in vivo, po
[33] = Apparent volume of distribution in tumor of NOD-SCID mouse model xenografted with human PC-3 cells at 25 mg/kg, IG measured upto 48 hrs by LC-MS/MS analysis; format: ADME, organism-based, Neoplasm; settings: in vivo, po
[34] = MRTlast in tumor of NOD-SCID mouse model xenografted with human PC-3 cells at 25 mg/kg, IG measured upto 48 hrs by LC-MS/MS analysis; format: ADME, organism-based, Neoplasm; settings: po

For `O=C(CCl)NC1CCN(c2cnc(-c3ccccc3)c(-c3ccccc3)n2)CC1`, the IC50 [1] was 3.6 µM, the IC50 [2] was 8.1 µM and the IC50 [3] was 7 µM. For the same compound, the IC50 [4] was 14.3 µM, the Activity [5] was “Tde” and the inhibition [6] was “Dose-Dependent Effect”. The Activity [7] was 18.47%, the Activity [8] was 16.41% and the Activity [9] was 45.07%. The Activity [10] was 28.11%, the Activity [11] was 38.62% and the Activity [12] was 38.52%. The Activity [13] was 35.47%, the Activity [14] was 17.82% and the Activity [15] was 18.63%. For the same compound, the Activity [16] was 44.68%, the Activity [17] was 35.53% and the Activity [18] was 0.96%. For the same compound, the Activity [19] was 1.86%, the Activity [20] was 12% and the Activity [21] was 27.9%. It also gave an Activity [22] of 13.2%, an Activity [23] of 2.85% and an Activity [24] of 6.57%. For the same compound, the Activity [25] was 100%, the Activity [26] was “Non-Toxic” and the Activity [27] was “Non-Toxic”. For the same compound, the Activity [28] was “Non-Toxic”, the Activity [29] was “Non-Toxic” and the Activity [30] was “Non-Toxic”. The Cmax [31] was 176 ng/mL, the Vz [32] was 143.3 L/kg and the Vz [33] was 170.8 L/kg. It also gave an MRT last at 48 h [34] of 9.9 h.
